The values that follow come from publication PMC5187899, “Discovery of Anti-Hypertensive Oligopeptides from Adlay Based on In Silico Proteolysis and Virtual Screening” (International Journal of Molecular Sciences, 2016).

The target of this experiment is T1, ACE from rabbit lungs (Oryctolagus cuniculus, UniProt P12822).
T1 construct: ACE from rabbit lungs and HHL was supplied by Sigma-Aldrich; purchased Sigma-Aldrich (St. Louis, MO, USA); host or cells: rabbit lung tissue
T1 sequence (P12822 34-1310): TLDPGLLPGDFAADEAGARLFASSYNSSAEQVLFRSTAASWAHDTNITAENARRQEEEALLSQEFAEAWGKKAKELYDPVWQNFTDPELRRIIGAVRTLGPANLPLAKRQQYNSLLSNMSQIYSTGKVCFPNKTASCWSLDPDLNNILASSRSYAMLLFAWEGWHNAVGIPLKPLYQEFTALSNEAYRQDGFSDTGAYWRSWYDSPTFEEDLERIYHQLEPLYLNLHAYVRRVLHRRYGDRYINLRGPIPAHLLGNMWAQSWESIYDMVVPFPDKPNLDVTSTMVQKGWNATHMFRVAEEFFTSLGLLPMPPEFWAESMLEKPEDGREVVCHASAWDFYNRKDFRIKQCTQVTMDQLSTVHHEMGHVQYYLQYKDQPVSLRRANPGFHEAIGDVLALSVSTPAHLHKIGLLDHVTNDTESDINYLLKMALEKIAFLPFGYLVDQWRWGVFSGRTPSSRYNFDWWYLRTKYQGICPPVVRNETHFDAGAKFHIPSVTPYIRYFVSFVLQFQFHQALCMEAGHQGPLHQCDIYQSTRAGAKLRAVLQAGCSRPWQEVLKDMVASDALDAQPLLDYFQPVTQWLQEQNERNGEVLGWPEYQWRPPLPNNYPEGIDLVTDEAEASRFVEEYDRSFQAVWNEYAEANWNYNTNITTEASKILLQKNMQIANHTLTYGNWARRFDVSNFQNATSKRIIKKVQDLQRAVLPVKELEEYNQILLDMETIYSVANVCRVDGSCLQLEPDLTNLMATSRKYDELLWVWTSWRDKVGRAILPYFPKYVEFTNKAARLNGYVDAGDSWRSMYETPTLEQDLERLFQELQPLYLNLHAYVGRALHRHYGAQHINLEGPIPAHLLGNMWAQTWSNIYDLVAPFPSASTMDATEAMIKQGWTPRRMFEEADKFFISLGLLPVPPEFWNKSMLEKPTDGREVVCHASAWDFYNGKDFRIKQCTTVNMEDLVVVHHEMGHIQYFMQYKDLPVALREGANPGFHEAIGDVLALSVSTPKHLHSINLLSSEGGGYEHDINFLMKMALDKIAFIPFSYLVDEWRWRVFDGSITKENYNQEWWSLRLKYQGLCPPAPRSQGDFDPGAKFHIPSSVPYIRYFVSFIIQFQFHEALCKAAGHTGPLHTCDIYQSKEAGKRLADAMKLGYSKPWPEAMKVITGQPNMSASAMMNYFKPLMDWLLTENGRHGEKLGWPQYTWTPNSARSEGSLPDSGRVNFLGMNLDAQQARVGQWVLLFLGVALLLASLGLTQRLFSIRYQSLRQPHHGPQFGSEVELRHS
Nature of the experiment: ACE inhibitory activity assay by RP-HPLC (HHL substrate, hippuric acid detection). The format is biochemical. To be noted: for ACE inhibitory activity (in words): chromatograms at 0.048 mg/mL. The text has this:
The potential oligopeptides obtained by docking were chemically synthesized by the Beijing Scilight Biotechnology Ltd., Co. (Beijing, China). The purity levels of the synthesized oligopeptides were all greater than 98% by HPLC analysis. ACE from rabbit lungs and HHL was supplied by Sigma-Aldrich (St. Louis, MO, USA). Acetonitrile of HPLC grade was purchased from Fisher Scientific (Pittsburgh, PA, USA). Lisinopril was supplied by Beijing HWRK Chem Co., Ltd. (Beijing, China) with more than 98% purity. All other used chemicals were of analytical grade.
The assay of in vitro ACE inhibitory activity was performed by RP-HPLC method by Yuan. Initially, the mixture was incubated at 37 °C for 10 min, including 10 μL of samples and 20 μL ACE (2 mU). After adding 20 μL of 2 mM HHL, the mixture continued to be incubated for 60 min until acetonitrile was added to terminate reaction. HA from the hydrolysis of the substrate HHL was detected by RP-HPLC on a C18 column (250 × 4.6 mm, 5 μm, Tianhe) at 228 nm. The column was eluted at a flow rate of 1 mL/min using 25% (v/v) acetonitrile in water with 0.05% trifluoroacetic acid. Lisinopril and borate buffer solution were used as positive and negative control, respectively. The formula (1) for computing ACE inhibitory rate is shown as follows. Wherein, Acontrol is the peak area of HA by negative control and Asample is the peak area of HA by the sample. The IC50 was calculated by the dosage and efficiency curve based on the 50% inhibition of ACE. (1) Inhibitory activity (%)=Acontrol−Asample/Acontrol×100%

By IC50 is commonly meant the midpoint of a concentration-inhibition curve.

No end group written: not given here.

As for “NCHEF [oligopeptide from in silico proteolysis of adlay prolamins, chemically synthesized]”, the “ACE inhibitory activity (in words)” value (RP-HPLC) is on record as “could not obtain the desirable activities of ACE”.
On the same count and under the same terms, under “VSAIGF [oligopeptide from in silico proteolysis of adlay prolamins, chemically synthesized]” stands “could not obtain the desirable activities of ACE”.
As for `NCCCC[C@H](N[C@@H](CCc1ccccc1)C(=O)O)C(=O)N1CCC[C@H]1C(=O)O` [Lisinopril, lisinopril, reference compound], the ACE inhibition ratio (lisinopril 2 × 10^−9 mol/L, RP-HPLC, 228 nm, 37 °C, 2 mM HHL, 60 min) was 77.86% ± 0.15%.
In the case of NPATY [NPATY], under “RP-HPLC on C18 column, 228 nm, 10 μL sample + 20 μL ACE (2 mU), 37 °C 10 min pre-incubation, 20 μL of 2 mM HHL, 60 min, from dosage and efficiency curve”, the IC50 came out at 61.9 ± 2.77 µM.
